In US20250073229A1, “PHARMACEUTICAL COMPOSITION FOR PREVENTING AND/OR TREATING HEART FAILURE” (OSAKA UNIVERSITY, priority 2022, published 2025):

System: left ventricular pressure-loaded model mice (TAC mice)
Experiment: Echocardiography in transverse aortic constriction (TAC) left ventricular pressure-loaded model mice
Format: in vivo, C57BL/6 mice
Experimental: Ten-week-old male C57BL/6 mice (about 25 g) were treated with transverse aortic constriction (TAC) to produce left ventricular pressure-loaded model mice (TAC mice). At 2 weeks after TAC (hypertrophic phase), an osmotic mini-pump (Alzet2006) was implanted subcutaneously, and continuous subcutaneous administration of Compound 011 or a vehicle (a solution obtained by mixing dimethyl sulfoxide and polyethylene glycol 300 in a weight ratio of 1:1) was started at a dose of 5 mg/kg/day. The left ventricular wall thickness (IVS), left ventricular end-diastolic diameter (LVDd), left ventricular fractional shortening (LVFS), and left ventricular ejection fraction (LVEF) were observed and evaluated by echocardiography every two weeks after the start of administration (Compound 011 group: 11 animals; vehicle group: 9 animals). In advance, Compound 011 was administered to non-TAC-treated mice at 5 mg/kg/day with an osmotic mini-pump (Alzet2006) in the same manner, and the blood level (tail vein blood sample) was measured at 2, 4, and 6 weeks after administration and the body blood pressure was measured at 2 weeks after administration to thus confirm that the dose of 5 mg/kg/day could be used for TAC mice.

[1] = 8 weeks after TAC (6 weeks after start of administration), 5 mg/kg/day continuous subcutaneous by osmotic mini-pump, p<0.05 vs. vehicle
[2] = 8 weeks after TAC, 5 mg/kg/day continuous subcutaneous

For O=C(O)c1cnc(N2CCN(c3noc4cccc(C(F)(F)F)c34)CC2)c(Cl)c1 [Compound 011, 5-Chloro-6-(4-(4-(trifluoromethyl)benzo[d]isoxazol-3-yl)piperazin-1-yl)nicotinic acid], the “progressive deterioration of LVFS and LVEF” value (5 mg/kg/day continuous subcutaneous, vs. vehicle group) was “significantly suppressed”, the “LVEF (left ventricular ejection fraction)” value [1] was 80.2±2.7% and the “left ventricular fractional shortening (LVFS) at 8 weeks after TAC” value [1] was 48.8±2.6%. For the same molecule, the “interventricular septum (IVS), difference vs. vehicle group” value [2] was “no significant difference” and the “left ventricular end-diastolic diameter (LVDd), difference vs. vehicle group” value [2] was “no significant difference”.
